Data on 1 compound can be found in patent US7070965B1, “Small molecule anticancer compounds and related production process” (priority 1998, dated 2006).

For data set [1], the system named is human prostate carcinoma DU145. Put plainly: Orthotopic nude mice model of human prostate carcinoma DU145. Type of data set: in vivo. The settings on record: for Mean tumor weight / TIR (tumor inhibition rate): oral once a day. The procedure: 13-methyltetradecanoic acid (iso-C15) was chemically synthesized in the inventor's laboratory, as described in Example 5, infra, (purity of 99.8%) was prepared by dissolving in NaOH solution and then in 0.35% Tween 80 with pH7.5.
Total of 24 male athymic BALB/c nude mice between 4 and 5 weeks of age were bred and maintained in specific pathogen free condition.
Human prostate carcinoma DU145 tumor was implanted and maintained subcutaneously in the flank of athymic nude mice. Prior to orthotopic implantation, the tumor was harvested in log phase. The peripheral tumor tissue was collected and minced to small pieces of one cubic millimeter each.
The mice were anesthetized for surgical orthotopic implantation. A small incision was made along the midline of the lower abdomen. After proper exposure of the bladder and prostate, the capsule of the prostate was opened and three pieces of DU145 tumor fragments were inserted into the capsule. The capsule was then closed using 8-0 suture, and the abdomen was closed using a 6-0 surgical suture.
The mice bearing orthotopic DU145 were randomly divided into control and test groups of eight mice each at the second day after tumor implantation. The iso-C15 prepared above at doses 35 and 70 mg/kg and PBS were administered by gavage once a day in low dose and high dose test groups and control group, respectively, for […].
All the mice were sacrificed by CO2 inhalation at day-40 after the start of treatment. The weights of primary tumors and bodies were measured. Tissue samples of the primary tumors were processed through standard procedures of hematoxylin and eosin staining for microscopic examination.
The tumor inhibition rates (TIR) were determined by comparing the mean tumor weight of the test groups (T) with that of the control group (C) and expressed as a (C)−T)/C percentage, and were analyzed by Student's test for statistical significance.

In another data set the test system is DU145 cancer cells. Put plainly: In situ cell death detection, POD. In kind it is cell-based, human. The settings on record: 60 μg/ml, 8 hours. The source says:
In Situ Cell Death Detection Kit, POD (Mannheim Boehringer GmbH) was used to detect the individual apoptotic cells. Cleavage of genomic DNA during apoptosis may yield double-stranded, low molecular weight DNA fragments as well as single strand breaks in high molecular weight DNA. Those DNA strand breaks can be identified by labeling free 3′-OH termini with modified nucleotides in an enzymatic reaction. In this kit terminal deoxynucleotidyl transferase (TdT) is used to label free 3′-OH ends in genomic DNA with fluorescein-dUTP. The incorporated fluorescein is visualized under fluorescence microscope directly. The incorporated fluorescein can also bind to anti-fluorescein antibody POD and be detected by substrate reaction. Stained cells can be analyzed under light microscope.
H1688, K-562 and DU145 human cancer cells and normal human PBLs were added with POD and incubated 30 min at 37° C., washed three times with PBS, then reacted with substrate AEC and incubated for 10 min at room temperature. The cells were analyzed under light microscope. […] It is evidenced that iso-C15 induces apoptosis of cancer cells but not normal human cells.

The subject of data set [2] is DU-145 human prostate carcinoma cell lines. Put plainly: Apoptosis morphology, H&E, light microscope. In kind it is cell-based. The settings on record: 60 μg/ml, 8 hours. How it is done: Human cancer cell lines DU-145 (prostate cancer), K562 (leukemia), HCT116 (colon cancer), H1688 (lung cancer), SUN423 (hepatocarcinoma), MCF7 (breast cancer), CRL-1687 (pancreatic cancer), and SUN-1 (gastric cancer) were obtained from American Type Culture Collection (ATCC). 30 ml blood was collected from a health person and normal peripheral mononuclear cells were separated by Ficoll separation solution (Sigma). All cells were maintained in RPMI 1640, DMEM, or McCoy medium supplemented with 10% FCS, […] streptomycin and 100 u/ml penicillin. Normal human peripheral mononuclear cells, K562 and SUN-1 were suspended cells. After spinning at 1,500 RPM for 5 min, supernatants were discharged and cells were resuspended and expended in fresh medium. The other tumor cell lines were adherent cells and were dispersed with 0.05% trypsin/0.01% EDTA (Irvine Scientific, CA) for expansion. Cells were seeded in T75 flasks at 2×10^6 cells/flask in culture medium supplemented with 10% fetal bovine serum and incubated overnight at 37° C. with 5% CO2. The adherent cells attached to the plate were striped with disposable cell scrapers (Fisher Scientific) after treated either with 1% iso-C15, anteiso-C15 or control solution for 1, 2, 4, 8 and 24 hours and then combined with respective float cells. […]

Another data set is described as follows: Determination of LD50. Type of data set: in vivo. The procedure: 13-methyltetradecanoic acid (iso-C15) purchased from Sigma (St. Louis, Mo.) was prepared by dissolving in NaOH solution and then in 0.35% Tween 80 with pH7.5.
ICR mice weighing 20.5–22.5 g of both sexes were treated with iso-C15 i.p. qd×3 in test groups and with solvent of same dose as in a control group. The doses ranged from 10 to 800 mg/kg of iso-C15 and two mice were included in each dose group (10 mg/kg, 20 mg/kg, 40 mg/kg, 80 mg/kg, 160 mg/kg, and 800 mg/kg). The general condition of these mice were monitored daily for seven days.

In a further data set the test system is normal human PBLs. The data set is described as follows: Flow cytometry annexin V / PI apoptosis detection. In kind it is cell-based. Particulars: 60 μg/ml, 24 hours. How it is done: (§1) Human cancer cell lines DU-145 (prostate cancer), K562 (leukemia), HCT116 (colon cancer), H1688 (lung cancer), SUN423 (hepatocarcinoma), MCF7 (breast cancer), CRL-1687 (pancreatic cancer), and SUN-1 (gastric cancer) were obtained from American Type Culture Collection (ATCC). 30 ml blood was collected from a health person and normal peripheral mononuclear cells were separated by Ficoll separation solution (Sigma). All cells were maintained in RPMI 1640, DMEM, or McCoy medium supplemented with 10% FCS, […] streptomycin and 100 u/ml penicillin. Normal human peripheral mononuclear cells, K562 and SUN-1 were suspended cells. After spinning at 1,500 RPM for 5 min, supernatants were discharged and cells were resuspended and expended in fresh medium. The other tumor cell lines were adherent cells and were dispersed with 0.05% trypsin/0.01% EDTA (Irvine Scientific, CA) for expansion. Cells were seeded in T75 flasks at 2×10^6 cells/flask in culture medium supplemented with 10% fetal bovine serum and incubated overnight at 37° C. with 5% CO2. The adherent cells attached to the plate were striped with disposable cell scrapers (Fisher Scientific) after treated either with 1% iso-C15, anteiso-C15 or control solution for 1, 2, 4, 8 and 24 hours and then combined with respective float cells. Cells were then prepared for flow cytometry analysis, in situ cell death detection, DNA fragmentation and Western blot assay followed the preparation methods for each assay. Cell pellets treated for 2 and 4 hr with either iso-C15 or control were also stored at −70° C. for future studies of gene regulation.
(§2) A flow cytometer (FACScan) with Consort 30 software for gating analysis (Becton Dickinson, San Jose, Calif.) was used. The Apoptosis Detection kit (R&D Systems) was used to quantitatively determine the percentage of cells undergoing apoptosis by virtue of their ability to bind annexin V and exclude propidium iodide (PI). Cells were washed in cold PBS twice and resuspended in binding buffer. Fluorescent-labeled annexin V and PI were added to the cells. The cells undergoing apoptosis, expressing phosphotidyiserine on the outer leaflet of cell membranes, would bind annexin V. The cells in later stage of apoptosis or necrosis, with a compromised cell membrane, would allow PI to bind to the cellular DNA. The resulting cells were immediately analyzed by flow cytometer equipped with a single laser emitting excitation light at 488 nm. The annexin V and PI generated signals can be detected in signal detector FL1 and FL2, respectively. […]

Data set [3] has as its system K562 human leukemia cells. Put plainly: Flow cytometry annexin V / PI apoptosis detection. Type of data set: cell-based. The settings on record: 30 μg/ml, 24 hours. How it is done:
as §1, §2
A general note: A flow cytometer gives signals particle by particle.

SMILES strings stand for the structures.

The LD50 is the dose expected to kill half of the subjects tested. A higher LD50 goes with a less toxic substance. Regarding `CC(C)CCCCCCCCCCCC(=O)O` [iso-C15, 13-methyltetradecanoic acid], in data set [1] (35 mg/kg), the Mean tumor weight is reported as 493.25 mg and the “TIR (tumor inhibition rate)” value amounted to 54.8%. In data set [1] (70 mg/kg), the Mean tumor weight is recorded as 168.00 mg and the “TIR (tumor inhibition rate)” value came out at 84.6%. Besides, in data set [1] (35 and 70 mg/kg oral), the “signs of toxicity (body weight curve, histology slides)” value is “no signs of toxicity”. The “mice in which the implanted tumor did not grow” value in data set [1] (high dose, 70 mg/kg, eight mice per group) is given as “four”. The “apoptotic cells stained, POD” value in the data set on DU145 cancer cells is “Some stained apoptotic DU145 cancer cells were shown”. Further, the “morphological changes indicative of apoptosis” value in data set [2] is “membrane blebs were noted”. In the data set “Determination of LD50” (both sexes, ICR, mouse, in vivo, ip), this compound displayed an LD50 at 7 days of over 800 mg/kg. Besides, the mortality result in the data set “Determination of LD50” (i.p. qd×3, dose up to 800 mg/kg, monitored seven days) is given as “No mice died”. The “FL1/FL2 pattern (annexin V / PI), effect on normal lymphocytes” value in the data set with normal human PBLs is “no significant effects”. The “FL1/FL2 pattern (annexin V / PI), apoptosis” value in data set [3] is recorded as “the majority of the cells were undergoing apoptosis”.
